According to patent publication EP0248597A2, “Phospholipase A2 inhibitors and methods of synthesis” (ORTHO PHARMACEUTICAL CORPORATION, priority 1986, dated 1987):
Values joined by “and” are separate entries in the source; they are usually repeats but may differ in a detail not shown here. Equal values may be shown once. Where a name gives a salt, the structure may show the parent alone. Blank lines part the entries; values can stand above or below the compound they belong to.

Assays:
[1] = system: experimentally-induced inflammation in the mouse ear; experiment: Mouse ear edema assay (topical anti-inflammatory activity); format: in vivo
Description: Compound 2 was also studied in a mouse ear edema assay to provide a measure of topical anti-inflammatory activity.
The topical antiinflammatory activity of a compound is determined by its ability to inhibit an experimentally-induced inflammation in the mouse ear. Croton oil, or 12-0-tetradecanoylphorbol acetate in acetone is dispensed onto the dorsum of one ear of the mouse. Five to six hours later the mice are sacrificed. A section of each ear is removed with a 7 mm cork borer and weighed on a electronic balance. The difference in weight between treated and untreated ears is determined. Compounds to be evaluated for antiinflammatory activity are incorporated in the croton oil irritant mixture, or applied in an appropriate vehicle.

[2] = target: T1, Porcine Pancreas Phospholipase A2 (Sus scrofa, UniProt P00592); experiment: Phospholipase A2 assay (hydrolysis of 14C-arachidonyl phosphatidyl choline), porcine pancreas enzyme; format: biochemical
T1 construct: purchased Sigma Chemical Co., St. Louis, MO; host or cells: porcine pancreas
T1 sequence (P00592 23-146): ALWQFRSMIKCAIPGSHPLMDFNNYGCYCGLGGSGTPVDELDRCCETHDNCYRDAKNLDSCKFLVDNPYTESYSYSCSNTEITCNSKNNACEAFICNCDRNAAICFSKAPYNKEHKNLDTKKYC
Description: (§1) The following procedure is a modification of the Phospholipase A₂ assay that was first described by Costentino et al., Prostaglandins, 22, 309 (1981) and is the method used herein to determine rat stomach and porcine pancreas phospholipas A₂ activity.
(§2) A suspension of phospholipase A₂ (Sigma Chemical Co., St. Louis, MO) is diluted with 25 millimolar (mM) Tris HCl buffer containing 1 mM calcium chloride to a final concentration of 10 micrograms of protein per milliliter (ml). Aliquots of 0.1 ml (7.1 units) of the enzyme suspension are added to each assay tube. Test compounds are added tin 0.01 ml aliquots in dimethyl sulfoxide or methanol and the volume is brought to 0.15 ml with the buffer. A preincubation is carried out at 37°C for 5 minutes. To start the reaction, 0.01 microcuries (0.179 nanomoles) of 2-arachidonyl (1-¹⁴C) 1-palmitoyl phosphatidyl choline (New England Nuclear, Boston, MA) are added to each tube, including three blank tubes containing no enzyme, and the incubation is carried out for 10 minutes at 37°C. The reaction is stopped with the addition of 0.07 ml of 1N HCl to each tube. Blanks, controls and each concentration of test compound are assayed in triplicate.
(§3) The reaction mixtures are extracted with ethyl acetate, and the organic and aqueous phases are separated by low speed centrifugation. The organic phase is dried under nitrogen and is then resuspended in 0.01 ml ethyl acetate. Arachidonic acid (50 micrograms in 0.01 ml methanol) is added to each tube as a carrier and standard. The entire mixture is spotted on silica gel G thin layer chromatography plates that are developed in a solvent system of ethyl acetate:acetic acid (99:1 by volume). […] Ten ml of Aquasol-2 (American Cyanamid Co., Wayne, NJ) are added to each vial, and the radioactivity is counted by liquid scintillation spectrometry.
(§4) The data are calculated as the ratio in percent of unesterified arachidonic acid to total radioactivity recovered. The potency of a compound is preferably determined by its IC₅₀ value (the concentration required to inhibit the reaction by 50 percent). […]

[3] = target: Rat Stomach Phospholipase A2 (Rattus norvegicus, UniProt P04055); experiment: Phospholipase A2 assay (hydrolysis of 14C-arachidonyl phosphatidyl choline), rat stomach enzyme; format: biochemical; conditions: at 10^-4M; read-out: Percent Inhibition of the Hydrolytic Activity of Rat Stomach Phospholipase A2
Rat Stomach Phospholipase A2, sequence (P04055 23-146): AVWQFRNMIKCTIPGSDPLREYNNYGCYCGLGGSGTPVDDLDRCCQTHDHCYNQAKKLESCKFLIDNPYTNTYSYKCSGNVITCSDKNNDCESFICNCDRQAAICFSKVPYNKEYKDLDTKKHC
Description: as §1, §2, §3, §4

Percent Inhibition of the Hydrolytic Activity of Porcine Pancreas Phospholipase A2 ([2]; at 10^-5 Molar (M), three independent trials, 10 µM): 62% and 86% and 68%
Structure (SMILES): CCCCCCCCCCCC/C=C\[C@@H](SC[C@H](NC(C)=O)C(=O)OC)[C@@H](O)CCCCO [Compound 2, Methyl N-acetyl-S-6[(5S,6R)-1,5-dihydroxy-7(Z)-eicosenyl]-(R)-cysteinate]
Inhibition (percent) Mouse No. 1 ([1]; 50 micrograms): 33%
Inhibition (percent) Mouse No. 2 ([1]; 50 micrograms): 68%
Inhibition (percent) Mouse No. 1 ([1]; 100 micrograms): 53%
Inhibition (percent) Mouse No. 2 ([1]; 100 micrograms): 72%
Inhibition (percent) Mouse No. 1 ([1]; 200 micrograms): 62%
Inhibition (percent) Mouse No. 2 ([1]; 200 micrograms): 82%
Inhibition (percent) Mouse No. 1 ([1]; 400 micrograms): 75%
Inhibition (percent) Mouse No. 2 ([1]; 400 micrograms): 80%

inhibition at 100 µM [3]: 55%
Structure (SMILES): CCCCCCCCCCCC/C=C\[C@@H](SC[C@H](NC(=O)CC[C@H](N)C(=O)O)C(=O)NCC(=O)O)[C@@H](O)CCCCOC1CCCCO1 (stereo partly drawn) [Compound 3, S-6-[(5S,6R)-5-hydroxy-1-(2-tetrahydropyranyloxy)-7(Z)-eicosenyl] glutathione triethylammonium salt dihydrate]

inhibition at 100 µM [3]: 40%
Structure (SMILES): CCCCCCCCCCCC/C=C\[C@@H](SC[C@H](N)C(=O)O)[C@@H](O)CCCCO [Compound 4, (5S,6R)-6-[S-(R)-cysteinyl] -7(Z)-eicosen-1,5-diol hemihydrate]

inhibition at 100 µM [3]: 58%
Percent Inhibition of the Hydrolytic Activity of Porcine Pancreas Phospholipase A2 ([2]; at 10^-4M, 100 µM): 73%
inhibition at 100 µM ([2]; at 10^-4M, read-out: Percent Inhibition of the Hydrolytic Activity of Porcine Pancreas Phospholipase A2): 72%
Structure (SMILES): CCCCCCCCCCCC/C=C\[C@@H](SC[C@H](NC(C)=O)C(=O)OC)C(CCCCO)=NO [Compound 14, Methyl N-acetyl-S-6-[(5S,6R)-1-hydroxy-5-oximino-7(Z)-eicosenyl]-(R)-cysteinate]
